Experiments:
Assay type in all cases: cell-based, mouse
[1] = tested on: Hedgehog Signaling Pathway; assay: SHH-induced differentiation of C3H10T1/2 cells into osteoblastic cells, intracellular alkaline phosphatase activity; conditions: 10 nM SHH-N, 5 days, alkaline phosphatase activity (OD405), read-out: IC50 values of compounds that inhibit Hh pathway
How it was run: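 Hedgehog pathway inhibition was taken as loss of SHH-driven osteoblastic differentiation. Test compound (10 nM–10 μM) plus SHH-N (10 nM) was applied to C3H10T1/2 cells for 5 days, then lysate phosphatase turnover was measured as the 30-min OD405 change at 37 °C. IC50 was fitted from activity versus log dose.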

[2] = tested on: Hedgehog Signaling Pathway; assay: SAG-induced differentiation of C3H10T1/2 cells into osteoblastic cells, intracellular alkaline phosphatase activity; conditions: 1 μM SAG, 5 days, alkaline phosphatase activity (OD405), read-out: IC50 values of compounds that inhibit Hh pathway
How it was run: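 Mouse C3H10T1/2 cells were induced with SAG and exposed to compound (10 μM to 1 nM) for 5 days at 37 °C. Cells were lysed in 0.2% Triton, and alkaline phosphatase activity was read as OD405 over 30 min at 37 °C in pH 9.8 substrate buffer. IC50 came from a non-linear fit of background-subtracted OD405 against log concentration.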

[3] = tested on: Hedgehog Signaling Pathway; assay: Gli-Luc reporter gene cell assay in C3H10T1/2/Gli-Luc cells stimulated with Shh; conditions: 30 nM Shh, luciferase activity (RLU), read-out: IC50 values of compounds that inhibit Hh pathway
How it was run: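 IC50 from nonlinear fit of luciferase RLU versus log compound concentration. Stably transfected C3H10T1/2/Gli-Luc cells received a 7-point compound series alongside Shh (30 nM in the added medium) for 24 h at 37 °C in DMEM/10% FBS, then were lysed for luciferase readout.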

[4] = Mus musculus, C3H 10T1/2, 120 h

SMILES	IC50 [1, 4] [nM]	IC50 [2, 4] [nM]	IC50 ([3]; Mus musculus, C3H 10T1/2, 24 h) [nM]	IC50 [1] [nM]	IC50 [2] [nM]	IC50 ([3]; 24 hours) [nM]
Cc1cc(-c2ccc(C#N)cc2)ccc1C(=O)Nc1cnc(Cl)c(-c2nc3ccccc3[nH]2)c1 [Example 70, N-(5-(1H-benzo[d]imidazol-2-yl)-6-chloropyridin-3-yl)-3-methyl-4′-cyanobiphenyl-4-carboxamide]	2.8	34	1.7	–	–	–
Cc1cc(-c2ccc(C(F)(F)F)cc2)ccc1C(=O)Nc1cnc(C)c(-c2nc3ccccc3[nH]2)c1 [Example 71, N-(5-(1H-benzo[d]imidazol-2-yl)-6-methylpyridin-3-yl)-3-methyl-4′-(trifluoromethyl)biphenyl-4-carboxamide]	3.6	181	7.1	–	–	–
Cc1cc(-c2ccc(C(F)(F)F)cc2)ccc1C(=O)Nc1ccc(Cl)c(-c2ncc(-c3ccc(F)cc3)[nH]2)c1 [Example 78, N-(3-(5-(4-fluorophenyl)-1H-imidazol-2-yl)-4-chlorophenyl)-3-methyl-4′-(trifluoromethyl)biphenyl-4-carboxamide]	4.8	166	15	–	–	–
Cc1ccc(-c2cnc(-c3cc(NC(=O)c4ccc(N5C[C@@H](C)O[C@@H](C)C5)cc4C)ccc3Cl)[nH]2)cc1 [Example 80, N-(3-(5-p-tolyl-1H-imidazol-2-yl)-4-chlorophenyl)-2-methyl-4-((2S,6R)-2,6-dimethylmorpholino)benzamide]	2.7	28	1.8	–	–	–
Cc1cc(N2C[C@@H](C)O[C@@H](C)C2)ccc1C(=O)Nc1cnc(Cl)c(-c2nc3ccccc3[nH]2)c1 [Example 83, N-(5-(1H-benzo[d]imidazol-2-yl)-6-chloropyridin-3-yl)-2-methyl-4-((2S,6R)-2,6-dimethylmorpholino)benzamide]	9.2	43	6.3	–	–	–
Cc1nc(N2C[C@@H](C)O[C@@H](C)C2)ccc1C(=O)Nc1cnc(Cl)c(-c2nc3ccccc3[nH]2)c1 [Example 84, N-(5-(1H-benzo[d]imidazol-2-yl)-6-chloropyridin-3-yl)-2-methyl-6-((2S,6R)-2,6-dimethylmorpholino)nicotinamide]	7.1	44	10	–	–	–
Cc1cc(N2C[C@@H](C)O[C@@H](C)C2)ncc1C(=O)Nc1cnc(Cl)c(-c2nc3ccccc3[nH]2)c1 [Example 85, N-(5-(1H-benzo[d]imidazol-2-yl)-6-chloropyridin-3-yl)-4-methyl-6-((2S,6R)-2,6-dimethylmorpholino)nicotinamide]	5.6	49	7.1	–	–	–
Cc1cc(N2C[C@@H](C)N(C)[C@@H](C)C2)ccc1C(=O)Nc1cnc(Cl)c(-c2nc3ccccc3[nH]2)c1 [Example 87]	–	–	–	1.7	21	0.53
Cc1cc(N2C[C@@H](C)N(C)[C@@H](C)C2)ccc1C(=O)Nc1cnc(C)c(-c2nc3ccccc3[nH]2)c1 [Example 88, N-(5-(1H-benzo[d]imidazol-2-yl)-6-methylpyridin-3-yl)-2-methyl-4-((3S,5R)-3,4,5-trimethylpiperazin-1-yl)benzamide]	11	119	6.7	–	–	–
Cc1cc(C(=O)Nc2cnc(C)c(-c3nc4ccccc4[nH]3)c2)ccc1N1C[C@@H](C)N(C)[C@@H](C)C1 [Example 89, N-(5-(1H-benzo[d]imidazol-2-yl)-6-methylpyridin-3-yl)-3-methyl-4-((3S,5R)-3,4,5-trimethylpiperazin-1-yl)benzamide]	55	381	21	–	–	–
Cc1ncc(NC(=O)c2ccc(N3C[C@@H](C)N(C)[C@@H](C)C3)nc2)cc1-c1nc2ccccc2[nH]1 [Example 90, N-(5-(1H-benzo[d]imidazol-2-yl)-6-methylpyridin-3-yl)-6-((3S,5R)-3,4,5-trimethylpiperazin-1-yl)nicotinamide]	35	461	25	–	–	–
Cc1cc(N2C[C@@H](C)O[C@@H](C)C2)ncc1C(=O)Nc1ccc(Cl)c(-c2nc3ccccc3[nH]2)c1 [Example 91, N-(3-(1H-benzo[d]imidazol-2-yl)-4-chlorophenyl)-4-methyl-6-((2S,6R)-2,6-dimethylmorpholino)nicotinamide]	6.8	52	7.8	–	–	–

Continued by falling IC50 [1, 4], values first:

IC50 [1, 4] [nM]	IC50 [2, 4] [nM]	IC50 ([3]; Mus musculus, C3H 10T1/2, 24 h) [nM]	IC50 [1] [nM]	IC50 [2] [nM]	IC50 ([3]; 24 hours) [nM]	SMILES
2.7	100	6.6	–	–	–	Cc1cc(-c2ccc(C(F)(F)F)cc2)ccc1C(=O)Nc1ccc(Cl)c(-c2ncc(-c3ccco3)[nH]2)c1 [Example 79, N-(3-(5-(furan-2-yl)-1H-imidazol-2-yl)-4-chlorophenyl)-3-methyl-4′-(trifluoromethyl)biphenyl-4-carboxamide]
1.9	139	7.1	–	–	–	Cc1ccc(-c2cnc(-c3cc(NC(=O)c4ccc(-c5ccc(C(F)(F)F)cc5)cc4C)ccc3Cl)[nH]2)cc1 [Example 77, N-(3-(5-p-tolyl-1H-imidazol-2-yl)-4-chlorophenyl)-3-methyl-4′-(trifluoromethyl)biphenyl-4-carboxamide]
1.7	40	0.94	–	–	–	C[C@@H]1CN(c2ccc(C(=O)Nc3cnc(Cl)c(-c4nc5ccccc5[nH]4)c3)cn2)C[C@H](C)N1C [Example 86, N-(5-(1H-benzo[d]imidazol-2-yl)-6-chloropyridin-3-yl)-6-((3S,5R)-3,4,5-trimethylpiperazin-1-yl)nicotinamide]
0.81	16	0.63	–	–	–	C[C@@H]1CN(c2ccc(C(=O)Nc3ccc(Cl)c(-c4nc5ccccc5[nH]4)c3)c(Cl)c2)C[C@H](C)N1C [Example 94, N-(3-(1H-benzo[d]imidazol-2-yl)-4-chlorophenyl)-2-chloro-4-((3S,5R)-3,4,5-trimethylpiperazin-1-yl)benzamide]
0.69	32	0.5	–	–	–	Cc1cc(N2C[C@@H](C)N(C)[C@@H](C)C2)ccc1C(=O)Nc1ccc(Cl)c(-c2nc3ccccc3[nH]2)c1 [Example 93, N-(3-(1H-benzo[d]imidazol-2-yl)-4-chlorophenyl)-2-methyl-4-((3S,5R)-3,4,5-trimethylpiperazin-1-yl)benzamide]
0.55	33	4.2	–	–	–	Cc1cc(-c2ccc(C(F)(F)F)cc2)ccc1C(=O)Nc1cnc(Cl)c(-c2nc3ccccc3[nH]2)c1 [Example 69, N-(5-(1H-benzo[d]imidazol-2-yl)-6-chloropyridin-3-yl)-3-methyl-4′-(trifluoromethyl)biphenyl-4-carboxamide]
0.21	12	0.16	–	–	–	C[C@@H]1CN(c2ccc(C(=O)Nc3ccc(Cl)c(-c4ncc(-c5cccs5)[nH]4)c3)c(Cl)c2)C[C@H](C)N1C [Example 82, N-(3-(5-(thiophen-2-yl)-1H-imidazol-2-yl)-4-chlorophenyl)-2-chloro-4-((3S,5R)-3,4,5-trimethylpiperazin-1-yl)benzamide]
0.16	6.4	0.15	–	–	–	Cc1cc(N2C[C@@H](C)N(C)[C@@H](C)C2)ccc1C(=O)Nc1ccc(Cl)c(-c2ncc(-c3cccs3)[nH]2)c1 [Example 81, N-(3-(5-(thiophen-2-yl)-1H-imidazol-2-yl)-4-chlorophenyl)-2-methyl-4-((3S,5R)-3,4,5-trimethylpiperazin-1-yl)benzamide]
